The source made the active and inactive calls. The calls are words filed in the database; no cut-off is given here.
Assays:
ECa-109 cell line [1] = assay: Induction of apoptosis in human EC109 cells assessed as early apoptotic cells at 4 uM after 48 hrs in presence of caspase inhibitor Z-VAD-FMK by Annexin V-FITC/propidium iodide staining based flow cytometry (reference value: 0.52%); format: functional
ECa-109 cell line [2] = assay: Induction of apoptosis in human EC109 cells assessed as necrotic cells at 8 uM after 48 hrs in presence of caspase inhibitor Z-VAD-FMK by Annexin V-FITC/propidium iodide staining based flow cytometry (reference value: 2.37%); format: functional
EC9706 [3] = assay: Induction of morphological changes in human EC9706 cells assessed as cell rounding after 48 hrs by Hoechst 33342 staining based fluorescence microscopic method; format: functional
ECa-109 cell line [4] = assay: Induction of apoptosis in human EC109 cells assessed as late apoptotic cells at 4 uM after 48 hrs in presence of caspase inhibitor Z-VAD-FMK by Annexin V-FITC/propidium iodide staining based flow cytometry (reference value: 0.01%); format: functional
ECa-109 cell line [5] = assay: Upregulation of p27 protein expression in human EC109 cells at 4 uM after 24 to 48 hrs by Western blot analysis relative to control; format: functional
EC9706 [6] = assay: Upregulation of p27 protein expression in human EC9706 cells at 4 uM after 24 to 48 hrs by Western blot analysis relative to control; format: functional
EC9706 [7] = assay: Induction of apoptosis in human EC9706 cells assessed as late apoptotic cells at 4 uM after 48 hrs by Annexin V-FITC/propidium iodide staining based flow cytometry (reference value: 1.29 to 1.99%); format: functional
EC9706 [8] = assay: Antiproliferative activity against human EC9706 cells after 24 hrs by MTT assay; format: functional, cell-based; conditions: EC9706, 24 h
ECa-109 cell line [9] = assay: Induction of apoptosis in human EC109 cells assessed as necrotic cells at 8 uM after 48 hrs by Annexin V-FITC/propidium iodide staining based flow cytometry (reference value: 0.74 to 1.18%); format: functional
ECa-109 cell line [10] = assay: Induction of apoptosis in human EC109 cells assessed as necrotic cells at 4 uM after 48 hrs in presence of caspase inhibitor Z-VAD-FMK by Annexin V-FITC/propidium iodide staining based flow cytometry (reference value: 2.37%); format: functional
Mus musculus = assay: Acute toxicity in C57BL/6 mouse assessed as histopathological changes in kidney at 2 g/kg, ig measured for 2 weeks by hematoxylin and eosin staining based microscopic method; format: organism-based; conditions: in vivo, po, 2000 mg/kg, 336 h
EC9706 [11] = assay: Induction of apoptosis in human EC9706 cells assessed as early apoptotic cells at 2 uM after 48 hrs by Annexin V-FITC/propidium iodide staining based flow cytometry (reference value: 0.68 to 1.58%); format: functional
MCF7 = assay: Antiproliferative activity against human MCF7 cells after 72 hrs by MTT assay; format: functional, cell-based; conditions: MCF7, 72 h
PC-3 = assay: Antiproliferative activity against human PC3 cells after 72 hrs by MTT assay; format: functional, cell-based; conditions: PC-3, 72 h
EC9706 [12] = assay: Cell cycle arrest in human EC9706 cells assessed as increase in G0/G1 phase population at 8 uM after 24 hrs by propidium iodide staining based flow cytometry relative to control; format: functional
SMMC-7721 = assay: Antiproliferative activity against human SMMC7721 cells after 72 hrs by MTT assay; format: functional, cell-based; conditions: SMMC-7721, 72 h
ECa-109 cell line [13] = assay: Antiproliferative activity against human EC109 cells after 72 hrs by MTT assay; format: functional, cell-based; conditions: ECa-109, 72 h
EC9706 [14] = assay: Anticlonogenic activity against human EC9706 cells after 7 days by crystal violet staining based assay; format: functional, cell-based
ECa-109 cell line [15] = assay: Induction of ROS generation in human EC109 cells at 2 uM after 24 hrs by DCFH-DA staining based flow cytometry relative to control; format: functional
ECa-109 cell line [16] = assay: Induction of apoptosis in human EC109 cells assessed as early apoptotic cells at 8 uM after 48 hrs in presence of caspase inhibitor Z-VAD-FMK by Annexin V-FITC/propidium iodide staining based flow cytometry (reference value: 0.52%); format: functional
EC9706 [17] = assay: Induction of apoptosis in human EC9706 cells assessed as early apoptotic cells at 8 uM after 48 hrs in presence of caspase inhibitor Z-VAD-FMK by Annexin V-FITC/propidium iodide staining based flow cytometry (reference value: 0.33%); format: functional
ECa-109 cell line [18] = assay: Antiproliferative activity against human EC109 cells after 48 hrs by MTT assay; format: functional, cell-based; conditions: ECa-109, 48 h
EC9706 [19] = assay: Induction of apoptosis in human EC9706 cells assessed as late apoptotic cells at 4 uM after 48 hrs in presence of caspase inhibitor Z-VAD-FMK by Annexin V-FITC/propidium iodide staining based flow cytometry (reference value: 1.27%); format: functional
GES1 = assay: Antiproliferative activity against human GES-1 cells after 48 hrs by MTT assay; format: cell-based; conditions: GES1, 48 h
EC9706 [20] = assay: Induction of apoptosis in human EC9706 cells assessed as live cells at 8 uM after 48 hrs by Annexin V-FITC/propidium iodide staining based flow cytometry (reference value: 85.5 to 96%); format: functional
EC9706 [21] = assay: Effect on Prxs-1 protein expression in human EC9706 cells at 2 to 8 uM after 48 hrs by Western blot analysis; format: functional, cell-based
EC9706 [22] = assay: Effect on Prxs-4 protein expression in human EC9706 cells at 2 to 8 uM after 48 hrs by Western blot analysis; format: functional, cell-based
EC9706 [23] = assay: Induction of apoptosis in human EC9706 cells assessed as live cells at 2 uM after 48 hrs by Annexin V-FITC/propidium iodide staining based flow cytometry (reference value: 85.5 to 96%); format: functional
ECa-109 cell line [24] = assay: Induction of apoptosis in human EC109 cells assessed as late apoptotic cells at 8 uM after 48 hrs in presence of caspase inhibitor Z-VAD-FMK by Annexin V-FITC/propidium iodide staining based flow cytometry (reference value: 0.01%); format: functional
EC9706 [25] = assay: Induction of apoptosis in human EC9706 cells assessed as necrotic cells at 8 uM after 48 hrs by Annexin V-FITC/propidium iodide staining based flow cytometry (reference value: 1.1 to 1.31%); format: functional
EC9706 [26] = assay: Effect on Prxs-5 protein expression in human EC9706 cells at 2 to 8 uM after 48 hrs by Western blot analysis; format: functional, cell-based
EC9706 [27] = assay: Induction of apoptosis in human EC9706 cells assessed as increase in cleaved PARP protein expression after 48 hrs by Western blot analysis; format: functional, cell-based
EC9706 [28] = assay: Induction of apoptosis in human EC9706 cells assessed as early apoptotic cells at 8 uM after 48 hrs by Annexin V-FITC/propidium iodide staining based flow cytometry (reference value: 0.68 to 1.58%); format: functional
ECa-109 cell line [29] = assay: Induction of apoptosis in human EC109 cells assessed as decrease in Bcl2 protein expression after 48 hrs by Western blot analysis; format: functional, cell-based
ECa-109 cell line [30] = assay: Induction of apoptosis in human EC109 cells assessed as early apoptotic cells at 2 uM after 48 hrs by Annexin V-FITC/propidium iodide staining based flow cytometry (reference value: 0.43 to 1.15%); format: functional
EC9706 [31] = assay: Induction of apoptosis in human EC9706 cells assessed as decrease in Bcl2 protein expression after 48 hrs by Western blot analysis; format: functional, cell-based
ECa-109 cell line [32] = assay: Induction of apoptosis in human EC109 cells assessed as increase in p53 protein expression after 48 hrs by Western blot analysis; format: functional, cell-based

COc1ccc(/C=N/NC(=O)c2cccc(S(=O)(=O)N3CCOCC3)c2)c(O)c1
Activity (ECa-109 cell line [1]): 9.34%
Activity (ECa-109 cell line [2]): 17.6%
Activity (EC9706 [3]): Dose-dependent effect
Activity (ECa-109 cell line [4]): 21.1%
fold change (FC) (ECa-109 cell line [5]): 1.4
fold change (FC) (EC9706 [6]): 1.4
Activity (EC9706 [7]): 18.2 - 21.6%
IC50 (EC9706 [8]): > 20 µM
Activity (ECa-109 cell line [9]): 2.23 - 13%
Activity (ECa-109 cell line [10]): 20.4%
Activity (Mus musculus): Non-Toxic
Activity (EC9706 [11]): 1.56%
IC50 (MCF7): 5.14 µM
IC50 (PC-3): 5.8 µM
fold change (FC) (EC9706 [12]): 1.27
IC50 (SMMC-7721): 3.95 µM
IC50 (ECa-109 cell line [13]): 2.79 µM
Activity (EC9706 [14]): Active
fold change (FC) (ECa-109 cell line [15]): 1.81
Activity (ECa-109 cell line [16]): 14.1%
Activity (EC9706 [17]): 16.4%
IC50 (ECa-109 cell line [18]): 11.3 µM
Activity (EC9706 [19]): 20.7%
IC50 (GES1): > 80 µM
Activity (EC9706 [20]): 29.9 - 61.1%
Activity (EC9706 [21]): Active
Activity (EC9706 [22]): Active
Activity (EC9706 [23]): 82.8%
Activity (ECa-109 cell line [24]): 21.2%
Activity (EC9706 [25]): 10.1 - 10.2%
Activity (EC9706 [26]): Active
Activity (EC9706 [27]): Dose-dependent effect
Activity (EC9706 [28]): 8.64 - 26%
Activity (ECa-109 cell line [29]): Dose-dependent effect
Activity (ECa-109 cell line [30]): 13.3%
Activity (EC9706 [31]): Dose-dependent effect
Activity (ECa-109 cell line [32]): Dose-dependent effect

— ChEMBL document CHEMBL4196033, “Potent hydrazone derivatives targeting esophageal cancer cells” (Eur J Med Chem, 2018)
